What was measured:
renal cell carcinoma = experiment: Example 2: patient with renal cell carcinoma and lung formations treated with rhodamine 6G; assay type: in vivo, human; conditions: Patient L, 43
Procedure: Three years previously the left kidney was removed and prophylactic chemotherapy was carried out to treat renal cell carcinoma. […] Severe dyspnea, diagnosis adynamia. Treatment was prescribed, including the use of a medicinal preparation having an anti-tumor action. […] After 4 weeks the dyspnea and pain had decreased. Blood analyses against the treatment background normalised over 3 months. A repeat course of treatment with the preparation was then prescribed, which was administered rectally in the form of a 1% suppository and also by inhalation for 6 months. Over the course of the treatment the tumor in the right kidney and the metastases in the lungs disappeared.

[1] = tested on: Primary cancer of the liver; experiment: Example 5: patient with primary liver cancer treated with rhodamine 6G; assay type: in vivo, human; set-up: Nuclear segments / Erythrocytes / Hemoglobin / Thrombocytes / Leukocytes / Amylase / Chlorine / Serum iron / Cholesterol / Total bilirubin / Bilirubin (line r8, above 'direct'): unit not given here; conditions: for Creatinine / Cholesterol / Total bilirubin / Potassium / ALT / AST / Bilirubin (line r8, above 'direct') / Serum iron / Total protein / Amylase / Chlorine / LDG / Bilirubin (line r10, above 'indirect') / direct (line r9) / indirect (line r11) / Phosphatase, alk. / Erythrocytes / Hemoglobin / Leukocytes / Thrombocytes / Basophils / Eosinophils / Nuclear rods / ESR / Monocytes / Lymphocytes / Nuclear segments: Example 5, Patient L; for Cholesterol: normal 1.66-8.3; for Total bilirubin: normal 2.90-6.54; for Potassium: normal 3.5-6.0; for ALT / AST: normal 5-40; for Bilirubin (line r8, above 'direct'): normal 8.5-20.5; for Serum iron: normal 8.8-27.0; for Total protein: normal 65.0-85.0; for Amylase: normal 95-110.0; for Chlorine: normal 135.0-; for LDG: normal 225-450; for Bilirubin (line r10, above 'indirect') / direct (line r9): normal up to 25%; for indirect (line r11): normal up to 100; for Phosphatase, alk.: normal up to 104; for Basophils: normal 0-1%; for Eosinophils: normal 0-5; for Nuclear rods: normal 1-6%; for ESR: normal 1-15 mm/hr; for Monocytes: normal 2-9%; for Lymphocytes: normal 18-40%; for Nuclear segments: normal 45-70
Procedure: Patient […]. Diagnosis: Primary cancer of the liver. One and a half years before, resection of part of the right hepatic lobe on account of liver cell carcinoma. Patient complained of pain in the right hypochondrium, dyspnea, ascites, intermittent retention of stools. Patient's condition moderately severe, loss of appetite, jaundice. […] The patient underwent bougienation of the umbilical vein. […] Subsequent procedures were carried out in exactly the same way twice a week. Only the preparation was administered intravenously. The course of treatment lasted 3 months. During the treatment the tumor in the affected region decreased in size to 0.5×0.7 cm. After 4 months a connective tissue scar of size 0.2×0.3 cm remained at the site of the tumor in the liver.

For “9-(2-ethoxycarbonyl)phenyl)-3,6-bis(ethylamino)2,7-dimethylxanthyl chloride [rhodamine 6G]”, the dyspnea and pain (renal cell carcinoma; after 4 weeks, 12 drops 1% solution oral three times a day and microenema) was “decreased”, the body weight (renal cell carcinoma; after treatment) was “regained weight” and the “blood analyses against the treatment background” value (renal cell carcinoma; over 3 months) was “normalised”. The “tumor in the kidney and metastases in the lungs” value (renal cell carcinoma; over the course of treatment, before: mass 3.5×5.4×3.7 cm, four lung formations 2.0-2.3 cm) was “disappeared”, the Creatinine ([1]; 04 Feb. 2005) was 79 µM and the Cholesterol ([1]; 04 Feb. 2005) was 5.75. The Total bilirubin ([1]; 04 Feb. 2005) was 8.4, the Potassium ([1]; 04 Feb. 2005) was 2.28 and the ALT ([1]; 04 Feb. 2005) was 154.2 el. For the same substance, the AST ([1]; 04 Feb. 2005) was 103.8 el, the “Bilirubin (line r8, above 'direct')” value ([1]; 04 Feb. 2005) was 3.3 and the Serum iron ([1]; 04 Feb. 2005) was 94.4. For the same substance, the Total protein ([1]; 04 Feb. 2005) was 78, the Amylase ([1]; 04 Feb. 2005) was 102.8 and the Chlorine ([1]; 04 Feb. 2005) was 114.31. For the same substance, the LDG ([1]; 04 Feb. 2005) was 332 el, the “Bilirubin (line r10, above 'indirect')” value ([1]; 04 Feb. 2005) was 84% and the “direct (line r9)” value ([1]; 04 Feb. 2005) was 5.1%. For the same substance, the “indirect (line r11)” value ([1]; 04 Feb. 2005) was 89 el, the “Phosphatase, alk.” value ([1]; 04 Feb. 2005) was 4.55 el and the Creatinine ([1]; 07 Apr. 2005) was 67 µM. The Cholesterol ([1]; 07 Apr. 2005) was 7.03, the Total bilirubin ([1]; 07 Apr. 2005) was 8.0 and the Potassium ([1]; 07 Apr. 2005) was 2.15. For the same substance, the ALT ([1]; 07 Apr. 2005) was 40 el, the AST ([1]; 07 Apr. 2005) was 30.4 el and the “Bilirubin (line r8, above 'direct')” value ([1]; 07 Apr. 2005) was 2.0. For the same substance, the Serum iron ([1]; 07 Apr. 2005) was 43.7, the Total protein ([1]; 07 Apr. 2005) was 64.34 and the Amylase ([1]; 07 Apr. 2005) was 110.0. For the same substance, the Chlorine ([1]; 07 Apr. 2005) was 134.2, the LDG ([1]; 07 Apr. 2005) was 362 el and the “Bilirubin (line r10, above 'indirect')” value ([1]; 07 Apr. 2005) was 90%. The “direct (line r9)” value ([1]; 07 Apr. 2005) was 6.0%, the “indirect (line r11)” value ([1]; 07 Apr. 2005) was 78.0 el and the “Phosphatase, alk.” value ([1]; 07 Apr. 2005) was 6.7 el. For the same substance, the Creatinine ([1]; 10 Nov. 2004) was 98 µM, the Cholesterol ([1]; 10 Nov. 2004) was 6.21 and the Total bilirubin ([1]; 10 Nov. 2004) was 11.0. The Potassium ([1]; 10 Nov. 2004) was 2.72, the ALT ([1]; 10 Nov. 2004) was 665.8 el and the AST ([1]; 10 Nov. 2004) was 554.5 el. The “Bilirubin (line r8, above 'direct')” value ([1]; 10 Nov. 2004) was 3.0, the Serum iron ([1]; 10 Nov. 2004) was 190.4 and the Total protein ([1]; 10 Nov. 2004) was 43.43. For the same substance, the Amylase ([1]; 10 Nov. 2004) was 114.0, the Chlorine ([1]; 10 Nov. 2004) was 114.20 and the LDG ([1]; 10 Nov. 2004) was 879 el. The “Bilirubin (line r10, above 'indirect')” value ([1]; 10 Nov. 2004) was 82%, the “direct (line r9)” value ([1]; 10 Nov. 2004) was 8.0% and the “indirect (line r11)” value ([1]; 10 Nov. 2004) was 107.2 el. For the same substance, the “Phosphatase, alk.” value ([1]; 10 Nov. 2004) was 5.71 el, the Erythrocytes ([1]; 12 Nov. 2004) was 3.22 and the Hemoglobin ([1]; 12 Nov. 2004) was 74. The Leukocytes ([1]; 12 Nov. 2004) was 7.2, the Thrombocytes ([1]; 12 Nov. 2004) was 315 and the Basophils ([1]; 12 Nov. 2004) was 1%. For the same substance, the Eosinophils ([1]; 12 Nov. 2004) was 1, the Nuclear rods ([1]; 12 Nov. 2004) was 1% and the ESR ([1]; 12 Nov. 2004) was 3.5 mm/hr. The Monocytes ([1]; 12 Nov. 2004) was 15%, the Lymphocytes ([1]; 12 Nov. 2004) was 9% and the Nuclear segments ([1]; 12 Nov. 2004) was 21. The Erythrocytes ([1]; 14 Feb. 2005) was 4.37, the Hemoglobin ([1]; 14 Feb. 2005) was 117 and the Leukocytes ([1]; 14 Feb. 2005) was 5.8. For the same substance, the Thrombocytes ([1]; 14 Feb. 2005) was 286, the Eosinophils ([1]; 14 Feb. 2005) was 2 and the Monocytes ([1]; 14 Feb. 2005) was 4%. It also gave a Lymphocytes ([1]; 14 Feb. 2005) of 23%, a Nuclear segments ([1]; 14 Feb. 2005) of 63 and an Erythrocytes ([1]; 17 Apr. 2006) of 4.67. The Hemoglobin ([1]; 17 Apr. 2006) was 123, the Leukocytes ([1]; 17 Apr. 2006) was 6.7 and the Thrombocytes ([1]; 17 Apr. 2006) was 310. It also gave a Basophils ([1]; 17 Apr. 2006) of 1%, an Eosinophils ([1]; 17 Apr. 2006) of 1 and an ESR ([1]; 17 Apr. 2006) of 8.5 mm/hr. For the same substance, the Monocytes ([1]; 17 Apr. 2006) was 9%, the Lymphocytes ([1]; 17 Apr. 2006) was 37% and the Nuclear segments ([1]; 17 Apr. 2006) was 65. The Erythrocytes ([1]; 19 Jan. 2005) was 3.60, the Hemoglobin ([1]; 19 Jan. 2005) was 80 and the Leukocytes ([1]; 19 Jan. 2005) was 7.8. For the same substance, the Thrombocytes ([1]; 19 Jan. 2005) was 362, the Eosinophils ([1]; 19 Jan. 2005) was 2 and the Nuclear rods ([1]; 19 Jan. 2005) was 1%. The Monocytes ([1]; 19 Jan. 2005) was 4.3%, the Lymphocytes ([1]; 19 Jan. 2005) was 16% and the Nuclear segments ([1]; 19 Jan. 2005) was 44. It also gave a Creatinine ([1]; 20 Dec. 2005) of 83 µM, a Cholesterol ([1]; 20 Dec. 2005) of 5.62 and a Total bilirubin ([1]; 20 Dec. 2005) of 24.2. It also gave a Potassium ([1]; 20 Dec. 2005) of 2.32, an ALT ([1]; 20 Dec. 2005) of 426 el and an AST ([1]; 20 Dec. 2005) of 432.9 el. For the same substance, the “Bilirubin (line r8, above 'direct')” value ([1]; 20 Dec. 2005) was 22.3, the Serum iron ([1]; 20 Dec. 2005) was 224.7 and the Total protein ([1]; 20 Dec. 2005) was 49.90. For the same substance, the Amylase ([1]; 20 Dec. 2005) was 140, the Chlorine ([1]; 20 Dec. 2005) was 115.3 and the LDG ([1]; 20 Dec. 2005) was 556 el. For the same substance, the “Bilirubin (line r10, above 'indirect')” value ([1]; 20 Dec. 2005) was 96%, the “direct (line r9)” value ([1]; 20 Dec. 2005) was 11.9% and the “indirect (line r11)” value ([1]; 20 Dec. 2005) was 102 el. For the same substance, the “Phosphatase, alk.” value ([1]; 20 Dec. 2005) was 5.48 el, the “patient's complaints” value ([1]; Patient L, 64, at the present time) was “no complaints” and the blood analyses ([1]; Patient L, 64, during treatment) was “positive change”.
